Data set [1] has as its system Balb/c ByJ mice. As to the kind of experiment: Suppression of dexamethasone-induced muscle atrophy. It counts as in vivo, mouse. The settings on record: 20 μL of 25 mg/mL stock intraperitoneally each day for a week; day 14. Here is the method:
(1) A 25 mg/mL dexamethasone stock solution in DMSO was prepared. Three Balb/c ByJ mice (6 week, female) were intraperitoneally injected with 20 μL of the dexamethasone stock solution, each day for a week. As a control group, three other individuals were injected with 20 μL of DMSO. On day 9, 11 and 13, each group of the mice was injected with a solution prepared by dissolving 0.3 μL of 10 mM IBS008738 stock solution in 100 μL PBS, on one hindlimb muscle, and with 100 μL PBS on the other hindlimb muscle. The mice were sacrificed at day 14, and the muscle tissues were fixed and stained with hematoxylin and eosin (see FIG. 8D). It was observed that the muscle fibers of the mice administered with dexamethasone were shrinked.
(2) The cross section of the muscle fibers of the individual intraperitoneally injected with dexamethasone was stained with an anti-laminin antibody and observed. […] The cross-section area of muscle fibers (500 per individual) of the three mice was measured. As a result, the area of the individual injected with IBS008738 was greater than the area of the individual injected with DMSO (see FIG. 9F). The cross-section area of muscle fibers was analyzed with Image J software.

For data set [2], the system named is C2C12 cells. Briefly: Evaluation of myogenesis of C2C12 cells by fusion index. It counts as cell-based, mouse. The settings on record: Group 5, differentiation condition 72 hours, DMSO as 1, average of three. The method, then:
(1) C2C12 cells were grown to confluence under growth condition, and then in differentiation condition for 72 hours, in a culture medium added with DMSO, IBS008738 (exemplary compound 1) or exemplary compounds 2 to 44, at a concentration of 1 μM, 3 μM or 10 μM, respectively. Thereafter, the degree of myogenesis was evaluated by a fusion index (a value obtained by dividing the number of nuclei detected in multinucleated myosin heavy chain (MHC)-positive cells by the total number of the nuclei). Specifically, exemplary compounds were divided into five groups, and DMSO and IBS008738 were evaluated in each group as controls. The evaluation was conducted three times, and the average value and the standard deviation of the fusion index was relativized with the measured value of DMSO as 1.
C2C12 cells were passaged in a growth medium (DMEM containing 10% FBS) and differentiated in a differentiation medium (DMEM containing 2% horse serum (Invitrogen)).

The test system of data set [3] is C2C12 cells. As to the kind of experiment: Antagonistic action on myostatin in C2C12 cells. The format is cell-based, mouse. The settings on record: differentiation condition 72 hours. From the text: Myostatin is a protein and a member of a transforming growth factor […] superfamily, and inhibits muscle growth and differentiation. Myostatin binds activin type IIB receptor and triggers SMAD2/3-dependent signaling. Since TAZ interacts with SMAD2/3, effects of IBS008738 on the signaling of myostatin was examined (FIGS. 8A to 8C). The line in the figures is 100 μm. The line and the error bar indicate the average value and the standard error, *p<0.05, […], ***p<0.001, ns refers to not significant.
(1) C2C12 cells in which TAZ was knocked down (si TAZ) and C2C12 cells in which TAZ was not knocked down (si Cont) were grown to confluence, respectively, A stock solution of 100 μg/mL myostatin in 4 mM […] with 0.1% (w/v) BSA and a stock solution of 10 mM IBS008738 in DMSO were prepared. The cells were cultured at differentiation condition for 72 hours in a 1 mL medium with 1 μL DMSO, a 1 mL medium with 1 μL myostatin stock solution, and a 1 mL medium with 1 μL IBS008738 stock solution. As a result, muscle formation of the C2C12 cells was inhibited in the case with only myostatin, but muscle formation of the C2C12 cells was recovered in the case with myostatin and IBS008738.
(2) The fusion index of C2C12 cells in which TAZ was knocked down (si TAZ) and C2C12 cells in which TAZ was not knocked down (si Cont), after being cultured under differentiation condition for 72 hours, was analyzed.
Expression of MHC of C2C12 cells in which TAZ was knocked down (si TAZ) and C2C12 cells in which TAZ was not knocked down (si Cont), after being cultured under differentiation condition for 72 hours, was analyzed by immunoblotting. As a result, expression of MHC decreased in the case with only myostatin, whereas it recovered in the case with myostatin and IBS008738 (see FIG. 8C).

Values joined by “and” are separate entries in the source; they are usually repeats but may differ in a detail not shown here. Equal values may be shown once.

`C[C@@H]1C[C@H]2[C@@H]3CCC4=CC(=O)C=C[C@]4(C)[C@@]3(F)[C@@H](O)C[C@]2(C)[C@@]1(O)C(=O)CO` [dexamethasone, reference compound]: the “muscle fibers of the mice administered with dexamethasone” value in data set [1] is listed as “shrinked”.

Turning to `Cc1cc(C)c(-n2cnc(N)c2C(=O)c2ccccc2)c(C)c1` [exemplary compound 44], the “relative fusion index (FI)” value in data set [2] (1 μM) amounted to 1.11; in data set [2] (3 μM) it was 1.08; in data set [2] (10 μM), 1.07.

Consider myostatin [MSTN], for which the “muscle formation of the C2C12 cells” value in data set [3] (TAZ not knocked down, 1 μL myostatin stock (100 μg/mL) and/or 1 μL 10 mM IBS008738 stock in 1 mL medium) is listed as “inhibited”. Also, the “expression of MHC” value in data set [3] (immunoblotting) was “decreased”. The Fusion index was 0.06 and 0.05 in data set [3] (siCont C2C12 cells); 0.02 and 0.03 and 0.04 in data set [3] (siTAZ C2C12 cells).

Values taken from patent US10653672B2, “Myogenesis promotor, muscle atrophy inhibitor, medical composition and TAZ activator” (National University Corporation Tokyo Medical and Dental …, priority 2014, dated 2020).
